Measured values reported in patent US11912682B2, “Isoindolinone compounds” (Monte Rosa Therapeutics, Inc., priority 2021, dated 2024).

Target: GSPT1 (Homo sapiens (Human), UniProt P15170+Q96SW2)
Assay: immunofluorescence assay for GSPT1 degradation in CAL-51 cells (Example 10)
Format: cell-based
Details: CAL-51 cells, 6 h; read-out: IF Class (GSPT1 degradation DC50)
Description: The representative compounds were tested in an immunofluorescence assay for their activity to degrade GSPT1. […] Compounds were stored at 10 mM DMSO stocks. […] Cells were subsequently rinsed with PBS and fixed in 10% Formalin solution (50 μl, Sigma HT5011)) for 20 mins at room temperature. […] Following three further PBS washes, 50 μL blocking buffer (1% BSA, Sigma A4503, in PBS) was added for 45 min for signal-to noise reduction. Primary antibody (human GSPT1, Sigma HPA052488) was diluted in blocking buffer (dil.1/300, 35 μL/well) and incubated with the cells overnight at 4° C. […] After three final PBS washes, samples were conserved in 100 μL PBS in the dark, until measurement. Image acquisition was performed on the Operetta High-Content Imager (Perkin-Elmer). […] For the determination of GSPT1 DC50 values, a custom algorithm implemented in the PerkinElmer image analysis software Harmony-Acapella® was developed. After user-defined setting of adjustment parameters, the analysis was run identically without human intervention for all image fields. DAPI staining of the nuclei was used to determine the location of cells using standard nuclei detection modules. Segmentation artifacts were removed by threshold-based filters for area, roundness and intensity. The outline of the cells was determined analogously from the sum of the normalized, smoothed DAPI and Actin channel, starting from each nucleus. […] GSPT1 degradation (DC50) was calculated after normalization to controls and data import in CDD vault Database, using non-linear regression.

Chain of GSPT1 (P15170 whole entry): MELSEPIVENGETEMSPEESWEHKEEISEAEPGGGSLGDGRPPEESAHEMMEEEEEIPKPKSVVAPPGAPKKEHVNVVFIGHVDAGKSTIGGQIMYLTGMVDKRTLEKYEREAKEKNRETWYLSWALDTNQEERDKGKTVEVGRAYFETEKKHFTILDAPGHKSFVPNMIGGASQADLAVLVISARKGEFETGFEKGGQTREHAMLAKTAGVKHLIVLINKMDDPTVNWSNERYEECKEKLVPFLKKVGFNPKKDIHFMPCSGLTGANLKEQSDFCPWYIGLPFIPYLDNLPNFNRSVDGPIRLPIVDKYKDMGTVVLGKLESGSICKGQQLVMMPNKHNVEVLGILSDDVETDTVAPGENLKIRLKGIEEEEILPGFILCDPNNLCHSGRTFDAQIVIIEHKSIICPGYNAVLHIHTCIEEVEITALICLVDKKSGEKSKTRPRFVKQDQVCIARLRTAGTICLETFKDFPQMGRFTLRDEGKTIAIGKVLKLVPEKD
Chain of GSPT1 (Q96SW2 whole entry): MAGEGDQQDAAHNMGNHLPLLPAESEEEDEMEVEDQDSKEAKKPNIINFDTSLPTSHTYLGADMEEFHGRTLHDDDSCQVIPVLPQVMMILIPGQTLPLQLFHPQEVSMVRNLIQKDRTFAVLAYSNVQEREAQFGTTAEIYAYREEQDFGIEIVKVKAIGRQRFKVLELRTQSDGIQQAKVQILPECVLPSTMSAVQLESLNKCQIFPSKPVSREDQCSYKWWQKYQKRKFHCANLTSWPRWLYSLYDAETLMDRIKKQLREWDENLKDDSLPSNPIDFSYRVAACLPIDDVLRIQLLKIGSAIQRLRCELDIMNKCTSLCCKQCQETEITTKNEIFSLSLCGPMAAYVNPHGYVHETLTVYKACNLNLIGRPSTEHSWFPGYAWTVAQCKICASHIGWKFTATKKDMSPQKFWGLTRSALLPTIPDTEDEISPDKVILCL
Chain of GSPT1 (Q16531 2-1140 partner): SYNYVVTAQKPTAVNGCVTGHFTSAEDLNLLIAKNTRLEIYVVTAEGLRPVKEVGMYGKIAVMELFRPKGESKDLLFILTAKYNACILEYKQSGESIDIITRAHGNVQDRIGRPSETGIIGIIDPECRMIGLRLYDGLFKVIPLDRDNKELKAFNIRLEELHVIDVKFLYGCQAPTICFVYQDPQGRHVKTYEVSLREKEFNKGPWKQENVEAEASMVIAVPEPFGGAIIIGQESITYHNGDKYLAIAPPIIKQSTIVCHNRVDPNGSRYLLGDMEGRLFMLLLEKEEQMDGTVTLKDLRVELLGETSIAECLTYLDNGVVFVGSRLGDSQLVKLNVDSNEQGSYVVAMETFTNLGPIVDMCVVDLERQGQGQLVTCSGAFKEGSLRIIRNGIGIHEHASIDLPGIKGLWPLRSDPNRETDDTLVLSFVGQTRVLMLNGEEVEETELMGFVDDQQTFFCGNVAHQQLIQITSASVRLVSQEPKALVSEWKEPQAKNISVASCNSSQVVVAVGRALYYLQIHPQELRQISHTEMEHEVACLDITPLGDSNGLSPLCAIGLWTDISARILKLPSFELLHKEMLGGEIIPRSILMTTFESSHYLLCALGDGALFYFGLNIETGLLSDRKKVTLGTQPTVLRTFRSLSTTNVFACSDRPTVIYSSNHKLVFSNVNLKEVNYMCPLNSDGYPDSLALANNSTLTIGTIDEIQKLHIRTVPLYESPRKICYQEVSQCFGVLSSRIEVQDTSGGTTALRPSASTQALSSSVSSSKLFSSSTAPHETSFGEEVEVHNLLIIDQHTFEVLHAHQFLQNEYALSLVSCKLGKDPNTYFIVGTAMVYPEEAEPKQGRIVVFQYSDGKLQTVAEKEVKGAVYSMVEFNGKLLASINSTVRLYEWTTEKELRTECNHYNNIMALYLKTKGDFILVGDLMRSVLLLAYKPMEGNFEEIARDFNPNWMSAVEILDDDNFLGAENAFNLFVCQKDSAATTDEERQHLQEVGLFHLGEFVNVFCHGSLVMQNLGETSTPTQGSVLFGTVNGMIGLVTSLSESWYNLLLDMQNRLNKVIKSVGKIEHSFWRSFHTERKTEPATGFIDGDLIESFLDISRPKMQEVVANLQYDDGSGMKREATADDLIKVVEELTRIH

DC50	Compound
> 300 nM	Cc1cc(F)c(NC(=O)OCc2ccc3c(c2)C(=O)N(C2CCC(=O)NC2=O)C3)cc1F (stereo not shown) [Compound 213, (2-(2,6-dioxopiperidin-3-yl)-3-oxoisoindolin-5-yl)methyl (2,5-difluoro-4-methylphenyl)carbamate]
> 300 nM	O=C1CCC(N2Cc3ccc(COC(=O)NC45CC(N6CCOCC6)(C4)C5)cc3C2=O)C(=O)N1 (stereo not shown) [Compound 215, (2-(2,6-dioxopiperidin-3-yl)-3-oxoisoindolin-5-yl)methyl (3-morpholinobicyclo[1.1.1]pentan-1-yl)carbamate]
< 30 nM	O=C1CCC(N2Cc3ccc(COC(=O)Nc4cccc(C5CC5)c4)cc3C2=O)C(=O)N1 (stereo not shown) [Compound 216, (2-(2,6-dioxopiperidin-3-yl)-3-oxoisoindolin-5-yl)methyl (3-cyclopropylphenyl)carbamate]
< 30 nM	CC(C)c1cccc(NC(=O)OCc2ccc3c(c2)C(=O)N(C2CCC(=O)NC2=O)C3)c1 (stereo not shown) [Compound 217, (2-(2,6-dioxopiperidin-3-yl)-3-oxoisoindolin-5-yl)methyl (3-isopropylphenyl)carbamate]
> 300 nM	O=C1CCC(N2Cc3ccc(COC(=O)NC45CC(C(F)F)(C4)C5)cc3C2=O)C(=O)N1 (stereo not shown) [Compound 219, (2-(2,6-dioxopiperidin-3-yl)-3-oxoisoindolin-5-yl)methyl (3-(difluoromethyl)bicyclo[1.1.1]pentan-1-yl) carbamate]
< 30 nM	CCc1cccc(NC(=O)OCc2ccc3c(c2)C(=O)N(C2CCC(=O)NC2=O)C3)c1 (stereo not shown) [Compound 220, (2-(2,6-dioxopiperidin-3-yl)-3-oxoisoindolin-5-yl)methyl (3-ethylphenyl)carbamate]
30 to 300 nM	CC(C)Oc1ccc(F)c(NC(=O)OCc2ccc3c(c2)C(=O)N(C2CCC(=O)NC2=O)C3)c1 (stereo not shown) [Compound 221, (2-(2,6-dioxopiperidin-3-yl)-3-oxoisoindolin-5-yl)methyl (2-fluoro-5-isopropoxyphenyl)carbamate]
> 300 nM	CCOc1ccc(F)c(NC(=O)OCc2ccc3c(c2)C(=O)N(C2CCC(=O)NC2=O)C3)c1 (stereo not shown) [Compound 223, (2-(2,6-dioxopiperidin-3-yl)-3-oxoisoindolin-5-yl)methyl (5-ethoxy-2-fluorophenyl)carbamate]
> 300 nM	O=C1CCC(N2Cc3ccc(COC(=O)NC45C6C7C4C4C5C6C74c4ccccc4)cc3C2=O)C(=O)N1 (stereo not shown) [Compound 225, (2-(2,6-dioxopiperidin-3-yl)-3-oxoisoindolin-5-yl)methyl (4-phenylcuban-1-yl)carbamate]
30 to 300 nM	CCCOc1ccc(F)c(NC(=O)OCc2ccc3c(c2)C(=O)N(C2CCC(=O)NC2=O)C3)c1 (stereo not shown) [Compound 226, (2-(2,6-dioxopiperidin-3-yl)-3-oxoisoindolin-5-yl)methyl (2-fluoro-5-propoxyphenyl)carbamate]
> 300 nM	O=C1CCC(N2Cc3ccc(COC(=O)Nc4cc(OC(F)F)c(F)cn4)cc3C2=O)C(=O)N1 (stereo not shown) [Compound 227, (2-(2,6-dioxopiperidin-3-yl)-3-oxoisoindolin-5-yl)methyl (4-(difluoromethoxy)-5-fluoropyridin-2-yl)carbamate]
30 to 300 nM	COc1cc(NC(=O)OCc2ccc3c(c2)C(=O)N(C2CCC(=O)NC2=O)C3)c(F)cc1C (stereo not shown) [Compound 229, (2-(2,6-dioxopiperidin-3-yl)-3-oxoisoindolin-5-yl)methyl (2-fluoro-5-methoxy-4-methylphenyl)carbamate]
< 30 nM	Cc1cc(F)c(NC(=O)OCc2ccc3c(c2)C(=O)N(C2CCC(=O)NC2=O)C3)cc1OC(C)C (stereo not shown) [Compound 230, (2-(2,6-dioxopiperidin-3-yl)-3-oxoisoindolin-5-yl)methyl (2-fluoro-5-isopropoxy-4-methylphenyl)carbamate]
< 30 nM	CCCOc1cc(NC(=O)OCc2ccc3c(c2)C(=O)N(C2CCC(=O)NC2=O)C3)c(F)cc1C (stereo not shown) [Compound 231, (2-(2,6-dioxopiperidin-3-yl)-3-oxoisoindolin-5-yl)methyl (2-fluoro-4-methyl-5-propoxyphenyl)carbamate]
30 to 300 nM	C[C@@H]1CCCN1c1cnc(NC(=O)OCc2ccc3c(c2)C(=O)N(C2CCC(=O)NC2=O)C3)c(F)c1 (stereo partly drawn) [Compound 232, (2-(2,6-dioxopiperidin-3-yl)-3-oxoisoindolin-5-yl)methyl (3-fluoro-5-((R)-2-methylpyrrolidin-1-yl)pyridin-2-yl)carbamate]
< 30 nM	CC1(c2ccc(NC(=O)OCc3ccc4c(c3)C(=O)N(C3CCC(=O)NC3=O)C4)cc2Cl)COC1 (stereo not shown) [Compound 236, (2-(2,6-dioxopiperidin-3-yl)-3-oxoisoindolin-5-yl)methyl (3-chloro-4-(3-methyloxetan-3-yl)phenyl)carbamate]
30 to 300 nM	Cc1cc(NC(=O)OCc2ccc3c(c2)C(=O)N(C2CCC(=O)NC2=O)C3)ncc1N1CCC[C@H]1C (stereo partly drawn) [Compound 237, (2-(2,6-dioxopiperidin-3-yl)-3-oxoisoindolin-5-yl)methyl (4-methyl-5-((R)-2-methylpyrrolidin-1-yl)pyridin-2-yl)carbamate]
< 30 nM	O=C1CCC(N2Cc3ccc(COC(=O)Nc4cccc(Cl)c4)cc3C2=O)C(=O)N1 (stereo not shown) [Compound 239, (2-(2,6-dioxopiperidin-3-yl)-3-oxoisoindolin-5-yl)methyl (3-chlorophenyl)carbamate]
30 to 300 nM	CC1(c2ccc(NC(=O)OCc3ccc4c(c3)C(=O)N(C3CCC(=O)NC3=O)C4)cc2F)COC1 (stereo not shown) [Compound 240, (2-(2,6-dioxopiperidin-3-yl)-3-oxoisoindolin-5-yl)methyl (3-fluoro-4-(3-methyloxetan-3-yl)phenyl)carbamate]

Compound	DC50
CC(C)(C)Oc1ccc(F)c(NC(=O)OCc2ccc3c(c2)C(=O)N(C2CCC(=O)NC2=O)C3)c1 (stereo not shown) [Compound 222, (2-(2,6-dioxopiperidin-3-yl)-3-oxoisoindolin-5-yl)methyl (5-(tert-butoxy)-2-fluorophenyl)carbamate]	30 to 300 nM
CCOc1cc(NC(=O)OCc2ccc3c(c2)C(=O)N(C2CCC(=O)NC2=O)C3)c(F)cc1C (stereo not shown) [Compound 228]	< 30 nM
Cc1cc(F)c(NC(=O)OCc2ccc3c(c2)C(=O)N(C2CCC(=O)NC2=O)C3)cc1C(F)(F)F (stereo not shown) [Compound 233]	30 to 300 nM
CC(F)(F)c1ccc(F)c(NC(=O)OCc2ccc3c(c2)C(=O)N(C2CCC(=O)NC2=O)C3)c1 (stereo not shown) [Compound 234]	> 300 nM
CC(C)(C)c1ccc(F)c(NC(=O)OCc2ccc3c(c2)C(=O)N(C2CCC(=O)NC2=O)C3)c1 (stereo not shown) [Compound 235]	30 to 300 nM
O=C1CCC(N2Cc3ccc(COC(=O)Nc4ccc(C(O)C(F)(F)F)nc4)cc3C2=O)C(=O)N1 (stereo not shown) [Compound 238]	> 300 nM
